Reference: BindingDB's records for PubMed 38477709 (Washington University School of Medicine)

Target: Coagulation factor X (Homo sapiens, UniProt P00742)
Experiment: Inhibition of factor Xa (unknown origin) using Bz-lle-Glu-Gly-Arg-pNA as chromogenic substrate preincubated for 30 mins followed by substrate addition by absorbance based analysis

Coagulation factor X, sequence (P00742 41-179 limits assumed): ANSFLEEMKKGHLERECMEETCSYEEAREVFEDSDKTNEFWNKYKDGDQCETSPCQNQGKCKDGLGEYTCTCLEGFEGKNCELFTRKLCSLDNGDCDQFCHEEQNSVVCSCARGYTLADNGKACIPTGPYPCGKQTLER
Coagulation factor X, sequence (P00742 235-488 limits assumed): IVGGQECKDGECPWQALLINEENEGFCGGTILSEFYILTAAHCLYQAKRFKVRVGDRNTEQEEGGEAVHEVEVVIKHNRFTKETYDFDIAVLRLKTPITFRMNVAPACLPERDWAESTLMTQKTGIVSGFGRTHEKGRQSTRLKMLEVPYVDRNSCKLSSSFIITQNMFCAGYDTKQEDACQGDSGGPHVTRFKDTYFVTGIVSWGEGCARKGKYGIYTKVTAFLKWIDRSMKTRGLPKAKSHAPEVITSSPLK

SMILES | IC50
CC(=O)N[C@H]1Cc2ccc(cc2)OCC=CCNC(=O)C[C@@H](C(=O)N[C@@H](CCCNC(=N)N)C(=O)c2nc3ccccc3s2)NC(=O)[C@H](CC(C)C)NC1=O | > 20 µM
CC(=O)N[C@H]1Cc2ccc(cc2)OCC=CCNC(=O)CC[C@@H](C(=O)N[C@@H](CCCNC(=N)N)C(=O)c2nc3ccccc3s2)NC(=O)[C@H](CC(C)C)NC1=O | > 20 µM
